This is an account of results in the supplement of paper PMC10307832.

Assay in all cases: relative viability (nuclei count vs DMSO), 5 days (fraction); higher = more cells survive
Compound in assay [1]: CCOC1=CC=CC=C1N=NC2=C(NN(C2=O)C3=NC(=CS3)C4=CC=CC=C4)C [BAM7] + CC(C)C[C@H](NC(=O)[C@H](Cc1ccccc1)NC(=O)c1cnccn1)B(O)O [Bortezomib] (partner 0.002 µM)
The gist of the method: (§1)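 Relative viability is defined as nuclei in treated wells over nuclei in vehicle wells. Duplicate plates were run and medians reported. Lung cancer cell lines in 1536-well plates were dosed by pin tool one day after seeding, with one drug or with a fixed anchor-drug dose plus five library-drug doses (not always all listed) in √10 steps, and nuclei were counted after 5 days.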

Compound in assay [2]: CCOC1=CC=CC=C1N=NC2=C(NN(C2=O)C3=NC(=CS3)C4=CC=CC=C4)C [BAM7] + COc1cccc2cc(-c3nc([C@H]4CC[C@H](C(=O)O)CC4)n4ncnc(N)c34)[nH]c12 [OSI-027] (partner 0.5 µM)
The gist of the method:
as §1

Compound in assay [3]: CCOC1=CC=CC=C1N=NC2=C(NN(C2=O)C3=NC(=CS3)C4=CC=CC=C4)C [BAM7] + N=C(N)NC(=N)NCCc1ccccc1 [Phenformin] (partner 250 µM)
The procedure, abridged: as §1

Compound in assay [4]: CCn1c(-c2nonc2N)nc2c(C#CC(C)(C)O)ncc(OC[C@H]3CCCNC3)c21 + COc1cc2c(Oc3ccc(NC(=O)C4(C(=O)Nc5ccc(F)cc5)CC4)cc3F)ccnc2cc1OCCCN1CCOCC1 [Foretinib] (partner 0.25 µM)
The gist of the method: as §1

Turning to UMC-11, the relative viability stood at 0.78 in assay [1] (first compound 0.5 µM); 0.89 in assay [1] (first compound 5 µM); 0.67 in assay [1] (first compound 15.81 µM); 0.905 in assay [1] (first compound 50 µM); 0.465 in assay [2] (first compound 0.5 µM); 0.461 in assay [2] (first compound 5 µM). The relative viability in assay [2] (first compound 15.81 µM) turned out to be 0.461; in assay [2] (first compound 50 µM), 0.487; in assay [3] (first compound 0.5 µM) it was 0.336; in assay [3] (first compound 5 µM) it was 0.371; in assay [3] (first compound 15.81 µM), 0.311; in assay [3] (first compound 50 µM), 0.312. Also, the relative viability in assay [4] (first compound 0.01 µM) stood at 1.01; in assay [4] (first compound 0.03162 µM), 1.06; in assay [4] (first compound 0.1 µM) it was 1.01; in assay [4] (first compound 0.3162 µM), 0.931; in assay [4] (first compound 1 µM) it was 1.04.
